Assay results reported in patent US12686692B2, “KRas G12D inhibitors” (Mirati Therapeutics, Inc., priority 2020, dated 2026).

Assays:
[1] = system: KRas G12D-mediated Phosphorylation of ERK; test: Inhibition of KRas G12D-mediated Phosphorylation of ERK in AGS cells; assay type: cell-based; settings: Homo sapiens; AGS cells expressing G12D, 3 hours, phospho-ERK normalized to GAPDH
Summary of the method: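 AGS cells (endogenous KRas G12D) were treated with compounds for 3 h in 0.5% DMSO, then fixed, permeabilized and immunostained. The phospho-ERK (Thr202/Tyr204) signal was normalized to GAPDH in-cell by infrared detection and expressed as % of DMSO control. IC50 came from a 4-parameter fit.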

KRas G12D [2] = biological target: T1, KRas G12D (Homo sapiens, UniProt P01116, G12D); test: KRas G12D Surface Plasmon Resonance (SPR) Binding Assay; settings: Biacore T200, biotinylated Avidin-tagged KRAS protein on SA chip, 20 C, 1:1 binding model
Summary of the method: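 Biotinylated Avi-tagged KRAS G12D was captured on a streptavidin chip; compounds were injected as 3-fold dilution series in HBS-Mg buffer, pH 7.5, with DMSO at 20 C (60 s contact, 120 s dissociation). Binding constants came from 1:1 model fits.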
Target sequence in this assay (P01116 1-188 isoform P01116-2 G12D): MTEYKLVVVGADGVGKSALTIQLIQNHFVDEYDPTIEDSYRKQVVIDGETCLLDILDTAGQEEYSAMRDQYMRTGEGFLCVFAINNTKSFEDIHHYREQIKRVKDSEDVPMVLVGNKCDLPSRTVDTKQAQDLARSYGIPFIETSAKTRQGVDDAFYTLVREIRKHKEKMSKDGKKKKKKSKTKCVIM

KRas G12D [3] = biological target: T1, KRas G12D; test: KRas G12D Binding Assay (TR-FRET displacement of labeled tracer); set-up: corresponding to amino acids 1:169, produced at Array BioPharma; biotin (protein is biotinylated); settings: TR-FRET displacement of Cy5 labelled tracer, biotinylated GDP-loaded KRAS G12D (aa 1:169), 60 minute incubation at 22° C.
Summary of the method: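 Biotinylated GDP-loaded human KRAS G12D (aa 1–169) incubated with Cy5 tracer, Eu-streptavidin and compound (2% DMSO final) in 50 mM HEPES pH 7.5, 5 mM MgCl2, 0.005% Tween-20, 1 mM DTT, 60 min at 22 °C. TR-FRET ratio converted to percent of control; IC50 at 50 POC from 4-parameter logistic fit.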
Target sequence in this assay (P01116 1-169 isoform P01116-2 G12D): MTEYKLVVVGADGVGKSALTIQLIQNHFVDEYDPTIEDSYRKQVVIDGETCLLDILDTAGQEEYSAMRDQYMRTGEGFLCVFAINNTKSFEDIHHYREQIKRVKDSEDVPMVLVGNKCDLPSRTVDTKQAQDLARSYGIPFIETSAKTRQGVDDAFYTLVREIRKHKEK

Compound `CN1CCC[C@H]1COc1nc2c(c(N3C[C@H]4CC[C@@H](C3)N4)n1)CCN(c1cccc3cccc(Cl)c13)C2` [Example 2, 4-((1R,5S)-3,8-diazabicyclo[3.2.1]octan-3-yl)-7-(8-chloronaphthalen-1-yl)-2-(((S)-1-methylpyrrolidin-2-yl)methoxy)-5,6,7,8-tetrahydropyrido[3,4-d]pyrimidine] has an IC50 [1] of 16100 nM, a Kd (KRas G12D [2]) of 163 nM and an IC50 (KRas G12D [3]) of 267 nM.
Work on `CN1CCC[C@H]1COc1nc2c(c(N3C[C@H]4CC[C@@H](C3)N4)n1)CCN(c1cc(C(F)F)cc3ccccc13)C2` [Example 56, 4-((1R,5S)-3,8-diazabicyclo[3.2.1]octan-3-yl)-7-(3-(difluoromethyl)naphthalen-1-yl)-2-(((S)-1-methylpyrrolidin-2-yl)methoxy)-5,6,7,8-tetrahydropyrido[3,4-d]pyrimidine] yielded an IC50 [1] of over 16700 nM, a Kd (KRas G12D [2]) of 89900 nM and an IC50 (KRas G12D [3]) of over 10000 nM.
Compound `Cc1cccc(N2CCc3c(nc(OCC45CCCN4CCC5)nc3N3C[C@H]4CC[C@@H](C3)N4)C2)c1C(F)(F)F` [Example 64, 4-((1R,5S)-3,8-diazabicyclo[3.2.1]octan-3-yl)-7-(3-methyl-2-(trifluoromethyl)phenyl)-2-((tetrahydro-1H-pyrrolizin-7a(5H)-yl)methoxy)-5,6,7,8-tetrahydropyrido[3,4-d]pyrimidine] has an IC50 [1] of over 16700 nM, a Kd (KRas G12D [2]) of 67.3 nM and an IC50 (KRas G12D [3]) of 13 nM.
Compound `CN1CCC[C@H]1COc1nc2c(c(N3CC4CC(O)C(C3)N4)n1)CCN(c1cc(O)cc3ccccc13)C2` (mixture of isomers) [Example 4, 3-(7-(3-hydroxynaphthalen-1-yl)-2-(((S)-1-methylpyrrolidin-2-yl)methoxy)-5,6,7,8-tetrahydropyrido[3,4-d]pyrimidin-4-yl)-3,8-diazabicyclo[3.2.1]octan-6-ol] has an IC50 [1] of 994 nM, a Kd (KRas G12D [2]) of 1.5 nM and an IC50 (KRas G12D [3]) of 3.7 nM.
With `CN1CCC[C@H]1COc1nc2c(c(N3C[C@H]4C[C@@H](CC#N)[C@@H](C3)N4)n1)CCN(c1cccc3cccc(Cl)c13)C2` [Example 40, 2-((1R,5S,6S)-3-(7-(8-chloronaphthalen-1-yl)-2-(((S)-1-methylpyrrolidin-2-yl)methoxy)-5,6,7,8-tetrahydropyrido[3,4-d]pyrimidin-4-yl)-3,8-diazabicyclo[3.2.1]octan-6-yl)acetonitrile] the IC50 [1] was over 16700 nM, the Kd (KRas G12D [2]) was 957 nM and the IC50 (KRas G12D [3]) was 63.9 nM.
For `CN1CCC[C@H]1COc1nc2c(c(N3C[C@H]4C[C@@H](O)[C@@H](C3)N4)n1)CCN(c1cc(O)cc3ccccc13)C2` (single isomer, unassigned) [Example 54], the IC50 [1] was 1130 nM, the Kd (KRas G12D [2]) was 501000 nM and the IC50 (KRas G12D [3]) was 41.1 nM.
`CN1CCC[C@H]1COc1nc2c(c(N3C[C@H]4CC(CCO)[C@@H](C3)N4)n1)CCN(c1cccc3cccc(Cl)c13)C2` (stereo partly drawn) [Example 91, 2-((1R,5S)-3-(7-(8-chloronaphthalen-1-yl)-2-(((S)-1-methylpyrrolidin-2-yl)methoxy)-5,6,7,8-tetrahydropyrido[3,4-d]pyrimidin-4-yl)-3,8-diazabicyclo[3.2.1]octan-6-yl)ethan-1-ol] showed an IC50 [1] of over 16700 nM, a Kd (KRas G12D [2]) of 176 nM and an IC50 (KRas G12D [3]) of 78.4 nM.
For `Clc1cccc2cccc(N3CCc4c(nc(OCC56CCCN5CCC6)nc4N4C[C@H]5CC[C@@H](C4)N5)C3)c12` [Example 29, 4-((1R,5S)-3,8-diazabicyclo[3.2.1]octan-3-yl)-7-(8-chloronaphthalen-1-yl)-2-((tetrahydro-1H-pyrrolizin-7a(5H)-yl)methoxy)-5,6,7,8-tetrahydropyrido[3,4-d]pyrimidine], the IC50 [1] was 4050 nM, the Kd (KRas G12D [2]) was 6.3 nM and the IC50 (KRas G12D [3]) was 2.5 nM.
Compound `CN1CCC[C@H]1COc1nc2c(c(N3C[C@H]4CC[C@@H](C3)N4)n1)CCN(c1c(F)cccc1C(F)(F)F)C2` [Example 75, 4-((1R,5S)-3,8-diazabicyclo[3.2.1]octan-3-yl)-7-(2-fluoro-6-(trifluoromethyl)phenyl)-2-(((S)-1-methylpyrrolidin-2-yl)methoxy)-5,6,7,8-tetrahydropyrido[3,4-d]pyrimidine] has an IC50 [1] of over 16700 nM, a Kd (KRas G12D [2]) of 170000 nM and an IC50 (KRas G12D [3]) of over 10000 nM.
`CN1CCC[C@H]1COc1nc2c(c(N3C[C@H]4CC[C@@H](C3)N4)n1)CCN(c1cccc3ccc(F)c(Cl)c13)C2` [Example 65, 4-((1R,5S)-3,8-diazabicyclo[3.2.1]octan-3-yl)-7-(8-chloro-7-fluoronaphthalen-1-yl)-2-(((S)-1-methylpyrrolidin-2-yl)methoxy)-5,6,7,8-tetrahydropyrido[3,4-d]pyrimidine] was tested, and the IC50 [1] was over 16700 nM, the Kd (KRas G12D [2]) was 18.2 nM and the IC50 (KRas G12D [3]) was 15.2 nM.
`Oc1cc(N2CCc3c(nc(OCC45CCCN4CCC5)nc3N3C[C@H]4CC[C@@H](C3)N4)C2)c2ccccc2c1` [Example 31, 4-(4-((1R,5S)-3,8-diazabicyclo[3.2.1]octan-3-yl)-2-((tetrahydro-1H-pyrrolizin-7a(5H)-yl)methoxy)-5,8-dihydropyrido[3,4-d]pyrimidin-7(6H)-yl)naphthalen-2-ol] was tested, and the IC50 [1] was 1610 nM, the Kd (KRas G12D [2]) was 0.8 nM and the IC50 (KRas G12D [3]) was 3.8 nM.
With `CN1CCC[C@H]1COc1nc2c(c(N3CC4CC(F)C(C3)N4)n1)CCN(c1cc(O)cc3ccccc13)C2` (stereo partly drawn) [Example 38, 4-(4-(6-fluoro-3,8-diazabicyclo[3.2.1]octan-3-yl)-2-(((S)-1-methylpyrrolidin-2-yl)methoxy)-5,8-dihydropyrido[3,4-d]pyrimidin-7(6H)-yl)naphthalen-2-ol] the IC50 [1] was 5000 nM, the Kd (KRas G12D [2]) was 2340 nM and the IC50 (KRas G12D [3]) was 73.5 nM.
Compound `CN1CCC[C@H]1COc1nc2c(c(N3C[C@H]4CC[C@@H](C3)N4)n1)CCN(c1cc(O)cc3ccccc13)C2` [Example 1, 4-(4-((1R,5S)-3,8-diazabicyclo[3.2.1]octan-3-yl)-2-(((S)-1-methylpyrrolidin-2-yl)methoxy)-5,8-dihydropyrido[3,4-d]pyrimidin-7(6H)-yl)naphthalen-2-ol] has an IC50 [1] of 2350 nM, a Kd (KRas G12D [2]) of 110 nM and an IC50 (KRas G12D [3]) of 48.9 nM.
In the case of `Fc1ccc2cccc(N3CCc4c(nc(OCC56CCCN5CCC6)nc4N4C[C@H]5CC[C@@H](C4)N5)C3)c2c1Cl` [Example 62, 4-((1R,5S)-3,8-diazabicyclo[3.2.1]octan-3-yl)-7-(8-chloro-7-fluoronaphthalen-1-yl)-2-((tetrahydro-1H-pyrrolizin-7a(5H)-yl)methoxy)-5,6,7,8-tetrahydropyrido[3,4-d]pyrimidine], the IC50 [1] is reported as 1940 nM, the Kd (KRas G12D [2]) is reported as 8.1 nM and the IC50 (KRas G12D [3]) is reported as 1 nM.
`CN1CCC[C@H]1COc1nc2c(c(N3C[C@H]4CC[C@@H](C3)N4)n1)CCN(c1cc(O)c(Cl)c3ccccc13)C2` [Example 24, 4-(4-((1R,5S)-3,8-diazabicyclo[3.2.1]octan-3-yl)-2-(((S)-1-methylpyrrolidin-2-yl)methoxy)-5,8-dihydropyrido[3,4-d]pyrimidin-7(6H)-yl)-1-chloronaphthalen-2-ol] was tested, and the IC50 [1] was over 16700 nM, the Kd (KRas G12D [2]) was 37.7 nM and the IC50 (KRas G12D [3]) was 1360 nM.
`FC1CN2CCCC2(COc2nc3c(c(N4CC5CC(F)C(C4)N5)n2)CCN(c2cccc4cccc(Cl)c24)C3)C1` (racemic) [Example 44, 7-(8-chloronaphthalen-1-yl)-4-(6-fluoro-3,8-diazabicyclo[3.2.1]octan-3-yl)-2-((2-fluorotetrahydro-1H-pyrrolizin-7a(5H)-yl)methoxy)-5,6,7,8-tetrahydropyrido[3,4-d]pyrimidine] showed an IC50 [1] of 9030 nM, a Kd (KRas G12D [2]) of 43.9 nM and an IC50 (KRas G12D [3]) of 43.5 nM.
`CN1CCC[C@H]1COc1nc2c(c(N3C[C@H]4CC[C@@H](C3)N4)n1)CCN(c1cc(O)c(Br)c3ccccc13)C2` [Example 109, 4-(4-((1R,5S)-3,8-diazabicyclo[3.2.1]octan-3-yl)-2-(((S)-1-methylpyrrolidin-2-yl)methoxy)-5,8-dihydropyrido[3,4-d]pyrimidin-7(6H)-yl)-1-bromonaphthalen-2-ol] was tested, and the IC50 [1] was 663 nM, the Kd (KRas G12D [2]) was 20.8 nM and the IC50 (KRas G12D [3]) was 5.5 nM.
